The values below come from DBAASP.

Converted amounts (≈) assume the structure as drawn.

Some test systems named below: Vibrio alginolyticus; Escherichia coli K91BK; Bacillus cereus AS1.126; Escherichia coli AS1.349.
What all share (assay): ≥ marks a high value that may be exact or a test limit, other limits are often not marked, values filed in µg/mL are converted to µM
In assay [1] the test system is Staphylococcus sp. BCRC 10451.
In assay [2] the test system is Staphylococcus aureus BCRC 10780.
The test system of assay [3] is Vibrio harveyi BCRC 13812.
Assay [4] relates to Streptococcus pneumoniae BCRC 10794.
Assay [5] concerns Escherichia coli ATCC 25922.
Assay [6] relates to Staphylococcus aureus ATCC 700699.
Assay [7] concerns Staphylococcus aureus ATCC 33591.
Assay [8] relates to Pseudomonas aeruginosa ATCC 27853.
The subject of assay [9] is Staphylococcus aureus ATCC 29213.
The subject of assay [10] is Klebsiella pneumoniae ATCC 700603.
For assay [11], the system named is Bacillus anthracis Sterne 34F2.
Assay [12] relates to Bacillus subtilis var. niger ATCC 9372.
Assay [13] concerns Bacillus subtilis ATCC 9372.
Assay [14] has as its system Burkholderia thailandensis.
In assay [15] the test system is Enterococcus faecalis CGMCC 1.595.
Assay [16] relates to Enterococcus faecium CGMCC 1.2334.
Assay [17] has as its system Enterobacter cloacae CGMCC 1.58.
The subject of assay [18] is Staphylococcus epidermidis CICC 23664.
In assay [19] the test system is Klebsiella pneumoniae subsp. pneumoniae CGMCC 1.176.
Assay [20] relates to Proteus mirabilis CICC 22931.
Assay [21] deals with Pseudomonas aeruginosa CGMCC 1.860.
Assay [22] concerns Staphylococcus aureus AS1.72.
Assay [23] has as its system Cronobacter sakazakii DPC 6440.
Assay [24] concerns Listeria monocytogenes LO28.

As to `CC[C@H](C)[C@H](NC(=O)[C@H](Cc1ccccc1)NC(C)=O)C(=O)N[C@@H](Cc1ccccc1)C(=O)N[C@@H](Cc1cnc[nH]1)C(=O)N[C@H](C(=O)N[C@H](C(=O)N[C@@H](CCCCN)C(=O)NCC(=O)N[C@@H](CC(C)C)C(=O)N[C@@H](Cc1ccccc1)C(N)=O)[C@@H](C)CC)[C@@H](C)CC` [FIFHIIKGLF], the MIC (with Vibrio alginolyticus; in assay [1]; in [2]; in assay [3]) was 5.06 µM (≈ 6.46 µg/mL) in each case.
In the case of `CC[C@H](C)[C@H](NC(=O)[C@H](Cc1ccccc1)NC(=O)CNC(C)=O)C(=O)N[C@@H](Cc1ccccc1)C(=O)N[C@@H](Cc1cnc[nH]1)C(N)=O` [GFIFH], the MIC in assay [4] and in [2] was at least 161 µM each time.
Turning to `CC[C@H](C)[C@H](NC(=O)[C@H](CC(=O)O)NC(=O)[C@H](CCCCN)NC(=O)[C@H](C)NC(=O)[C@H](C)NC(=O)CNC(=O)[C@H](CCCCN)NC(=O)[C@H](C)NC(=O)[C@@H](NC(=O)[C@H](CC(=O)O)NC(=O)[C@@H](NC(=O)[C@@H](NC(=O)CN)C(C)C)C(C)C)[C@@H](C)CC)C(=O)N[C@@H](C)C(=O)NCC(=O)N[C@@H](Cc1cnc[nH]1)C(=O)N[C@@H](CC(C)C)C(=O)N[C@@H](C)C(=O)N[C@@H](CO)C(=O)N[C@@H](CCCCN)C(=O)N[C@H](C(=O)N[C@@H](CCSC)C(=O)N[C@@H](CC(N)=O)C(=O)N[C@@H](CCCCN)C(=O)N[C@@H](CC(C)C)C(N)=O)C(C)C` [GVVDIAKGAAKDIAGHLASKVMNKL], the MIC (commonly the smallest concentration in the dilution series that meets the test's criterion for growth inhibition) in assay [5] is above 100 µM; in assay [6], at least 100 µM; in [7] it was at least 100 µM; in assay [8], above 100 µM; in [9] it was above 100 µM; in assay [10], above 100 µM.
In the case of `CC(=O)NCC(=O)N[C@@H](Cc1c[nH]c2ccccc12)C(=O)NCC(=O)N[C@@H](CO)C(=O)N[C@@H](Cc1ccccc1)C(=O)N[C@@H](Cc1ccccc1)C(=O)N[C@@H](CCCCN)C(=O)N[C@@H](CCCCN)C(=O)N[C@@H](C)C(=O)N[C@@H](C)C(=O)N[C@@H](Cc1cnc[nH]1)C(=O)N[C@H](C(=O)NCC(=O)N[C@@H](CCCCN)C(=O)N[C@@H](Cc1cnc[nH]1)C(=O)N[C@H](C(=O)NCC(=O)N[C@@H](CCCCN)C(=O)N[C@@H](C)C(=O)N[C@@H](C)C(=O)N[C@@H](CC(C)C)C(=O)N[C@H](C(=O)N[C@@H](Cc1cnc[nH]1)C(=O)N[C@@H](Cc1ccc(O)cc1)C(=O)N[C@@H](CC(C)C)C(N)=O)[C@@H](C)O)C(C)C)C(C)C` [GWGSFFKKAAHVGKHVGKAALTHYL], the MIC against Escherichia coli K91BK was at least 100 µM; in assay [11], at least 79.4 µM; in assay [12], 17.7 µM (≈ 48.7 µg/mL).
For the compound `CC[C@H](C)[C@H](NC(=O)[C@H](CCCN=C(N)N)NC(=O)[C@H](CC(C)C)NC(=O)[C@H](CCC(N)=O)NC(=O)[C@H](CCCCN)NC(=O)[C@H](CC(C)C)NC(=O)[C@H](CC(C)C)NC(=O)[C@H](CC(C)C)NC(=O)[C@@H](NC(=O)[C@H](CCCCN)NC(=O)[C@H](CC(=O)O)NC(=O)[C@H](C)NC(=O)[C@@H](NC(=O)[C@H](CCCCN)NC(=O)[C@H](CCCCN)NC(=O)[C@H](CC(=O)O)NC(=O)[C@@H](NC(=O)[C@H](Cc1cnc[nH]1)NC(C)=O)C(C)C)C(C)C)C(C)C)C(=O)N[C@@H](CCSC)C(=O)N[C@@H](CCCN=C(N)N)C(=O)N[C@@H](CC(C)C)C(=O)N[C@@H](CC(C)C)C(=O)N[C@H](C(=O)N[C@@H](CCCN=C(N)N)C(=O)N[C@@H](CC(C)C)C(N)=O)[C@@H](C)O` [HVDKKVADKVLLLKQLRIMRLLTRL], the MIC is 16 µM (≈ 48.7 µg/mL) in [13], at least 35 µM in assay [11] and at least 50 µM in [14].
For `CC[C@H](C)[C@H](N)C(=O)N[C@@H](CCCCN)C(=O)N[C@@H](CCCCN)C(=O)N[C@H](C(=O)N[C@@H](Cc1c[nH]c2ccccc12)C(=O)N[C@@H](CO)C(=O)N[C@@H](CCCCN)C(=O)N[C@H](C(=O)N[C@@H](CCCCN)C(=O)N[C@@H](CCCCN)C(=O)N[C@@H](Cc1c[nH]c2ccccc12)C(=O)N[C@@H](CC(C)C)C(=O)N[C@@H](CCCCN)C(=O)O)[C@@H](C)CC)[C@@H](C)CC` [IKKIWSKIKKWLK], the minimum inhibitory concentration (MIC) in assay [15] is 2.5 µM (≈ 4.25 µg/mL); in assay [16] it was 5 µM (≈ 8.5 µg/mL); in assay [17] it was at least 100 µM; in the assay with Bacillus cereus AS1.126, 18.8 µM (≈ 31.9 µg/mL); in [18], 2.5 µM (≈ 4.25 µg/mL); in assay [19], at least 100 µM. In addition, the MIC in assay [20] was at least 100 µM; in [21], 15.6 µM (≈ 26.5 µg/mL); in the assay with Escherichia coli AS1.349 it was 2.5 µM (≈ 4.25 µg/mL); in [22], 2.5 µM (≈ 4.25 µg/mL).
On to `CC[C@H](C)[C@H](NC(=O)CNC(=O)[C@H](CCCCN)NC(=O)[C@H](CCCN=C(N)N)NC(=O)[C@@H](NC(=O)[C@@H](NC(=O)[C@H](CCCN=C(N)N)NC(=O)[C@H](CCCN=C(N)N)NC(=O)[C@H](CC(C)C)NC(=O)[C@H](CC(N)=O)NC(=O)[C@H](CCCCN)NC(C)=O)[C@@H](C)CC)[C@@H](C)CC)C(=O)N[C@@H](Cc1cnc[nH]1)C(=O)N[C@H](C(=O)N[C@H](C(=O)N[C@@H](CCCCN)C(=O)N[C@@H](CCCCN)C(=O)N[C@@H](Cc1ccc(O)cc1)C(=O)NCC(N)=O)[C@@H](C)CC)[C@@H](C)CC` [KNLRRIIRKGIHIIKKYG], for which the MIC with Escherichia coli K91BK was at least 100 µM; in [11] it was at least 100 µM; in assay [12], 12.5 µM (≈ 28.1 µg/mL); in assay [14], at least 100 µM.
Take `CC[C@H](C)[C@H](NC(=O)[C@@H](N)Cc1c[nH]c2ccccc12)C(=O)N[C@@H](CCC(N)=O)C(=O)N1CCC[C@H]1C(=O)N[C@@H](CCCCN)C(=O)N[C@H](C(=O)N[C@@H](CCCCN)C(=O)N[C@@H](C)C(=O)N[C@H](C(=O)N1CCC[C@H]1C(=O)N[C@@H](Cc1ccc(O)cc1)C(=O)N[C@H](C(=O)N[C@@H](CCCN=C(N)N)C(=O)N[C@@H](Cc1ccc(O)cc1)C(=O)N[C@@H](CC(C)C)C(=O)O)C(C)C)[C@@H](C)CC)[C@@H](C)O` [WIQPKTKAIPYVRYL]: the MIC is at least 78.1 µM in [23] and 19.5 µM (≈ 36.6 µg/mL) in assay [24].
`CC[C@H](C)[C@H](NC(=O)[C@@H](N)Cc1c[nH]c2ccccc12)C(=O)N[C@@H](CCC(N)=O)C(=O)N1CCC[C@H]1C(=O)N[C@@H](CCCCN)C(=O)N[C@H](C(=O)N[C@@H](CCCCN)C(=O)N[C@H](C(=O)N[C@H](C(=O)N1CCC[C@H]1C(=O)N[C@@H](Cc1ccc(O)cc1)C(=O)N[C@H](C(=O)O)C(C)C)[C@@H](C)CC)C(C)C)[C@@H](C)O` [WIQPKTKVIPYV]: the values for the MIC in [23] and in [24] were at least 625 µM and at least 156 µM, respectively.
